Measured values from patent US20040024000A1, “Dihydropyrimidine derivatives as cysteine protease inhibitors” (priority 2003, published 2004).

What was measured:
[1] = molecular target: T1, r cathepsin K (Homo sapiens, UniProt P43235); assay: In vitro assay for cathepsin K inhibition; type: biochemical; conditions: substrate N-CBZ-Phe-Arg-AMC, pH 5.5, 10 min preincubation
T1 sequence (P43235 115-329): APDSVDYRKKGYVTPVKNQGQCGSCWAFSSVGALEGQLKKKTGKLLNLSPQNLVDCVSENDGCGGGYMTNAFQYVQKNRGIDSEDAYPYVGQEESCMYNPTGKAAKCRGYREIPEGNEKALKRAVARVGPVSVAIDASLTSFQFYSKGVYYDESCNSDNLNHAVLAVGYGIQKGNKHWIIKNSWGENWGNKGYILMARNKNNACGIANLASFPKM
Description: To a […] of enzyme-buffer mixture (enzyme: r cathepsin K, diluted to give approximate 30 F units/min, buffer: 100 mM sodium acetate, 5 mM EDTA, 20 mM L-cysteine, 0.01% Brij, pH 5.5) a 10 μl of inhibitor (dissolved in DMSO) was added. After 10 min of incubation at room temperature, a 20 μl of 2.7 mM substrate (N-CBZ-Phe-Arg-AMC, dissolved in DMSO) was added to initiate reaction. Reading is followed up for 10 min at the fluoroscan II plate reader (excitation at 380 nm emission at 460 nm).
(§1) A plot of percentage of inhibition vs inhibitor concentration is obtained, and IC50 is determined using a linear regression calculations (concentration of inhibitor which will give 50% inhibition).

[2] = molecular target: r rat cathepsin B (Rattus norvegicus, UniProt P00787); assay: In vitro assay for cathepsin B inhibition; type: biochemical; conditions: substrate N-CBZ-Phe-Arg-AMC, pH 5.1, 10 min preincubation
Description: The compounds of formula I were tested for inhibition of cathepsin B using the known method (A. J. Barret et al., Biochem. J. 1982, 201, 189-198). To a 170 μl of enzyme-buffer mixture (enzyme: r rat cathepsin B, diluted to give approximate 10 F units/min, buffer: 56 mM sodium acetate, 1.124 mM EDTA, 10 mM DTT, pH 5.1) a 10 μl of inhibitor (dissolved in DMSO) was added. After 10 min of incubation at room temperature, a 20 μl of 5 mM substrate (N-CBZ-Phe-Arg-AMC, dissolved in DMSO) was added to initiate reaction. Reading is followed up for 10 min at the fluoroscan reader (excitation at 380 nm emission at 460 nm).
as §1

[3] = molecular target: r rat cathepsin L (Rattus norvegicus, UniProt P07154); assay: In vitro assay for cathepsin L inhibition; type: biochemical; conditions: substrate N-CBZ-Phe-Arg-AMC, pH 5.0, 10 min preincubation
Description: After 10 min of incubation at room temperature, a 20 μl of 1 mM substrate (N-CBZ-Phe-Arg-AMC, dissolved in DMSO) was added to initiate reaction. Reading is followed up for 10 min at the fluoroscan reader (excitation at 380 nm emission at 460 nm).
as §1

[4] = molecular target: r cathepsin S (Homo sapiens, UniProt P25774); assay: In vitro assay for cathepsin S inhibition; type: biochemical; conditions: substrate N-CBZ-Val-Val-Arg-AMC, pH 6.5, 10 min preincubation
Description: To a […] of enzyme-buffer mixture (enzyme: r cathepsin S, diluted to give approximate 30 F units/min, buffer: 100 mM sodium phosphate, 1 mM EDTA, 5 mM DTT, 0.01% Brij, pH 6.5) a 10 μl of inhibitor (dissolved in DMSO) was added. After 10 min of incubation at room temperature a […] of 1.2 mM substrate (N-CBZ-Val-Val-Arg-AMC, dissolved in DMSO) was added to initiate reaction. Reading is followed up for 10 min at the fluoroscan 11 plate reader (excitation at 380 nm emission at 460 nm).
as §1

[5] = Pharmacokinetics in mice after single oral dose; type: in vivo; set-up: Cl/F: unit not given here; conditions: single oral dose of 5 mg/kg; for AUC / Cmax / half-life / Vd/F: mouse, in vivo; for Vd/F: read-out: Vz/F
Description: Selected compounds of present invention were tested in rodents. This class of compound has favorable pharmacokinetics at the oral dose of 5 mg/kg. The bioavailability is about 60-70%.

Chain of r cathepsin S (P25774 115-331): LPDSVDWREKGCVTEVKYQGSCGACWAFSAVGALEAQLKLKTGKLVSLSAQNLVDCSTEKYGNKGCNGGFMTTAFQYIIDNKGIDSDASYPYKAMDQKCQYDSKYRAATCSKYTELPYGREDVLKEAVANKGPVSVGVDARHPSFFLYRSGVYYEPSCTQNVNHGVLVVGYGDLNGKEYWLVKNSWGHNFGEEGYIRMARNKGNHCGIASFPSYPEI
Chain of r rat cathepsin L (P07154 114-334): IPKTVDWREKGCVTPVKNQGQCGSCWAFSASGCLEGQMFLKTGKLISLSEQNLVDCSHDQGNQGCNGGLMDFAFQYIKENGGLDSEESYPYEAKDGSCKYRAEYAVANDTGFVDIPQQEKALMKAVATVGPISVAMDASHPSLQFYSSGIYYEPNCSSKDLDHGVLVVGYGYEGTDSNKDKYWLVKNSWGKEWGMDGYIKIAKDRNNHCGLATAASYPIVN
Chain of r rat cathepsin B (P00787 80-333): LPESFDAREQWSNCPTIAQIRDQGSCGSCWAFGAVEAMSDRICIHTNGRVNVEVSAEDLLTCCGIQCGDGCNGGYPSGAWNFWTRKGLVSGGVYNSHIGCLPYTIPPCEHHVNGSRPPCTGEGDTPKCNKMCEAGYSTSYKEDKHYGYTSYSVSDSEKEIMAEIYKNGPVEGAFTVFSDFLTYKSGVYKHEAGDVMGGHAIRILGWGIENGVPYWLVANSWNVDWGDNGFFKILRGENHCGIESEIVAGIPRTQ

Row | SMILES | IC50 [1] | IC50 [2] | IC50 [3] | IC50 [4] | AUC [5] | Cmax [5] | half-life [5] | Vd/F [5] | Cl/F [5]
1 | CC(C)C[C@H](NC(=O)OCc1ccccc1)C(=O)NC1=CNC(c2ccccc2F)NC1=O (stereo partly drawn) [Example 2, 5-[2-(Benzyloxycarbonyl)amino-2-isobutyl]acetamido-2-(2-fluorophenyl)-2,3-dihydopyrimidine-6-(1H)one] | 57 nM | 8380 nM | 920 nM | 290 nM | – | – | – | – | –
2 | CC(C)C[C@H](NC(=O)OCc1ccccc1)C(=O)NC1=CNC(CC(C)(C)C)NC1=O (stereo partly drawn) [Example 10, 5-[2-(Benzyloxycarbonyl)-amino-2-isobutyl]acetamido-2-tert-butylmethyl-2,3-dihydopyrimidine-6-(1H)one] | 250 nM | 9530 nM | 2320 nM | 2320 nM | – | – | – | – | –
3 | CC(C)C[C@H](NC(=O)OCc1ccccc1)C(=O)NC1=CNC(c2ccco2)NC1=O (stereo partly drawn) [Example 20, 5-[2-(Benzyloxycarbonyl)amino-2-isobutyl]acetamido-2-(furan-2-yl)-2,3-dihydopyrimidine-6-(1H)one] | 45 nM | 2350 nM | 1500 nM | 94 nM | – | – | – | – | –
4 | CC(C)C[C@H](NC(=O)CCc1ccccc1)C(=O)NC1=CNC2(CCCC2)NC1=O [Example 17, 5-[2-(3-Phenylpropionyl)-amino-2-isobutyl]acetamido-2,2-spirocyclopentyl-2,3-dihydopyrimidine-6-(1H)one] | 12100 nM | > 50000 nM | > 50000 nM | 8490 nM | – | – | – | – | –
5 | CC(C)C[C@H](NC(=O)OCc1ccccc1)C(=O)Nc1c[nH]c(=O)[nH]c1=O [Example 14, 5-[2-(Benzyloxycarbonyl)-amino-2-isobutyl]acetamido Pyrimidin-2,6-dione] | > 50000 nM | > 50000 nM | > 50000 nM | > 50000 nM | – | – | – | – | –
6 | CC(C)C[C@H](NC(=O)c1cc2ccccc2s1)C(=O)NC1=CNC(c2ccccc2F)NC1=O (stereo partly drawn) [Example 21, 5-[2-(Benzothiophene-2-yl)amino-2-isobutyl]acetamido-2-(2-fluorophenyl)-2,3-dihydopyrimidine-6-(1H)one] | 14 nM | 420 nM | 170 nM | 37 nM | 853 ng·h/mL | 2610 ± 1840 ng/mL | 0.54 ± 0.39 h | 4.49 ± 3.03 L/kg | 2.09 ± 0.72

Now from value to compound:

Row | IC50 [1] | IC50 [2] | IC50 [3] | IC50 [4] | AUC [5] | Cmax [5] | half-life [5] | Vd/F [5] | Cl/F [5] | SMILES
7 | 91 nM | 5220 nM | 450 nM | 68 nM | – | – | – | – | – | CC(C)C[C@H](NC(=O)CCc1ccccc1)C(=O)NC1=CNC2(CCCCCC2)NC1=O [Example 19, 5-[2-(3-Phenylpropionoyl)-amino-2-isobutyl]acetamido-2,2-spirocycloheptyl-2,3-dihydopyrimidine-6-(1H)one]
8 | 74 nM | 4560 nM | 480 nM | 480 nM | – | – | – | – | – | CC(C)C[C@H](NC(=O)OCc1ccccc1)C(=O)NC1=CNC(C(C)(C)C)NC1=O (stereo partly drawn) [Example 8, 5-[2-(Benzyloxycarbonyl)-amino-2-isobutyl]acetamido-2-tert-butyl-2,3-dihydopyrimidine-6-(1H)one]
9 | 100 nM | 3160 nM | 1790 nM | 480 nM | 2730 ng·h/mL | 3830 ± 3090 ng/mL | 1.63 ± 0.48 h | 4.49 ± 1.9 L/kg | 0.617 ± 0.08 | CC(C)C[C@H](NC(=O)OCc1ccccc1)C(=O)NC1=CNC2(CCCC2)NC1=O [Example 6, 5-[2-(Benzyloxycarbonyl)amino-2-isobutyl]acetamido-2,2-spirocyclopentyl-2,3-dihydopyrimidine-6-(1H)one]
10 | 18 nM | 2290 nM | 460 nM | 55 nM | – | – | – | – | – | CC(C)C[C@H](NC(=O)OCc1ccccc1)C(=O)NC1=CNC(c2ccncc2)NC1=O (stereo partly drawn) [Example 9, 5-[2-(Benzyloxycarbonyl)-amino-2-isobutyl]acetamido-2-(pyridin-4-yl)-2,3-dihydopyrimidine-6-(1H)one]
11 | 340 nM | 4010 nM | 460 nM | 460 nM | – | – | – | – | – | CC(C)C[C@H](NC(=O)OCc1ccccc1)C(=O)NC1=CNC(c2ccccc2)NC1=O (stereo partly drawn) [Example 1, 5-[2-(Benzyloxycarbonyl)amino-2-isobutyl]acetamido-2-phenyl-2,3-dihydopyrimidine-6-(1H)one]
